The values below come from US12558435B2, “Transient inhibition of p53 in gene therapy” (Ospedale San Raffaele S.R.L., priority 2018, dated 2026).

In general, IC50 refers to the concentration that inhibits the measured activity by half.

Data set [1] concerns the target T1, ATR (Mus musculus, UniProt Q9JKK8).
T1 construct: endogenous in cells; host or cells: 3T3TopBP1-ER cells
Particulars: in 3T3TopBP1-ER cells; cited from earlier work.

For data set [2], the target named is ATR (Homo sapiens, UniProt Q13535). Particulars: cited from earlier work.
The target of data set [3] is ATM kinase (Homo sapiens, UniProt Q13315). The conditions noted are these: cited from earlier work.
Data set [4] relates to human CD34+ cells. The format is cell-based. Particulars: for HDR efficiency (GFP+ cells): molecules added one day before viral transduction, FIG. 2B; for editing efficiency by molecular analyses on genomic DNA: human HSPC, FIG. 8B. As to the method: CD34+ cells were either freshly purified from human CB after obtaining informed consent and upon approval by the Ospedale San Raffaele Bioethical Committee, or purchased frozen from Lonza. CD34+ cells were edited according to a previously optimized protocol (Schiroli et al. 2017 supra).
Briefly, 5×10^5 CD34+ cells/ml were stimulated in serum-free StemSpan medium (StemCell Technologies) supplemented with penicillin, streptomycin, glutamine, 1 μM SR-1 (Biovision), […] (STEMCell Technologies), 10 μM PGE2 added only at the beginning of the culture (Cayman), and human early-acting cytokines (SCF 100 ng/ml, Flt3-L 100 ng/ml, TPO 20 ng/ml, and IL-6 20 ng/ml; all purchased from Peprotech). After 3 days of prestimulation, cells were washed with PBS and electroporated using P3 Primary Cell 4D-Nucleofector X Kit and program EO-100 (Lonza). Cells were electroporated with 2.5-1.25 μM of RNPs.
Transduction with AAV6 was performed at a dose of 1-2×10^4 vg/cell 15′ after electroporation. GSE56 mRNA was utilized were indicated at a dose of 150 μg/ml. Gene editing efficiency was measured from cultured cells in vitro 3 days after electroporation by flow cytometry measuring the percentage of cells expressing the GFP marker or by digital droplet PCR analysis designing primers and probe on the junction between the vector sequence and the targeted locus and on control sequences utilized as normalizer as previously described (Schiroli et al. 2017 supra).
For HDR ddPCR, primers and probes were designed on the junction between the vector sequence and the targeted locus and on control sequences used for normalization (human TTC5 genes). Thermal conditions for annealing and extension were adjusted for each specific application as follows: AAVS1/Intron 1 IL2RG HDR 3′ integration junction ddPCR: 55° C. for 30 sec, 72° C. for 2 min. Primers and probes for PCR and ddPCR amplifications are shown below.
CD34^+ cells were purchased frozen from Lonza. CD34^+ cells were edited according to a previously optimised protocol (Schiroli, G. et al (2017) Sci Transl Med 9). Briefly, 1-5×10^5 CD34^+ cells/ml were stimulated in serum-free StemSpan medium (StemCell Technologies) supplemented with penicillin, streptomycin, glutamine, 1 μM of the arylhydrocarbon receptor antagonist SR-1 (Biovision), […] of the pyrimidoindole-derivative UM171 (STEMCell Technologies), 10 μM of the 15-hydroxy PGDH competitive inhibitor dmPGE-2 added only at the beginning of the culture (Cayman), and human early-acting cytokines (SCF 100 ng/ml, Flt3-L 100 ng/ml, TPO 20 ng/ml, and IL-6 20 ng/ml; all purchased from Peprotech). After 3 days of pre-stimulation, cells were washed with PBS and electroporated using P3 Primary Cell 4D-Nucleofector X Kit and program EO-100 (Lonza). Cells were electroporated with 1-1.2 μM of RNPs. Where specified, electroporation mixture was supplemented with Ad5-E4orf1, Ad5-E4orf6/7 and GSE56/Ad5-E4orf6/7 mRNAs, which were respectively utilized at doses of 120, 80 and 200 μg/ml, or Ad5-E1B55K and Ad5-E4orf6 mRNAs were used at 120 and 80 μg/ml. All other adenoviral protein variants were used at standard dose 120 μg/ml. Transduction with AAV-6 was performed 15 min post-electroporation at dose of 1-5×10^4 vg/cell. Where specified, CD34+ cells were stimulated for shorter time in culture (0, 24 or 48 hours) and edited as described above. Gene editing efficiency was measured from cultured cells in vitro at 4 days post-editing by flow cytometry measuring the percentage of cells expressing the GFP reporter gene or by digital droplet PCR analysis designing primers and probe on the junction between the vector sequence and the targeted locus and on control sequence utilised as normaliser as previously described (Schiroli, G. et al (2017) Sci Transl Med 9) and Schiroli et al., Cell Stem Cell 2019. […]

Data set [5] relates to human CD34+ cells. The data set can be described thus: NHEJ by mismatch-sensitive endonuclease (T7 Endonuclease I) assay in edited CD34+ cells. The format is cell-based. The conditions noted are these: bulk cells, 3 days after gene editing; FIG. 2C. The protocol:
The percentage of insertions and deletion (indels) introduced by the Non Homologous End Joining (NHEJ) repair pathway on the nucleases target site was measured by a mismatch-sensitive endonuclease assay (PCR-based amplification of the targeted locus followed by digestion with T7 Endonuclease I; digested DNA fragments were resolved and quantified by capillary electrophoresis on LabChip GX Touch HT, Perkin Elmer) The levels of NHEJ-induced mutations were used as surrogate readout for scoring nucleases activity.
For molecular analyses, genomic DNA was isolated with DNeasy Blood & Tissue Kit or QIAamp DNA Micro Kit (QIAGEN) according to the number of cells available. Nuclease activity (IL2RG intron 1, AAVS1) was measured by mismatch-sensitive endonuclease assay by PCR-based amplification of the targeted locus followed by digestion with T7 Endonuclease I (NEB) according to the manufacturer's instructions. Digested DNA fragments were resolved and quantified by capillary electrophoresis on LabChip GX Touch HT (Perkin Elmer) according to the manufacturer's instructions.
For molecular analyses, genomic DNA was isolated with DNeasy Blood & Tissue Kit or QIAamp DNA Micro Kit (QIAGEN) according to the number of cells available. […] Digested DNA fragments were resolved and quantified by capillary electrophoresis on LabChip GX Touch HT (Perkin Elmer) according to the manufacturer's instructions.

The conditions of data set [6]: DMSO and ethanol; cited from earlier work.
The test system of data set [7] is human CD34+ cells. The data set can be described thus: Cell growth curve of edited CD34+ cells. The format is cell-based.
In data set [8] the test system is human CD34+ cells. Briefly: Cell cycle analysis by Hoechst 33342 staining. The format is cell-based. The conditions noted are these: bulk treated cells; 12-24 hours; FIG. 14H. The protocol:
Cell cycle was analysed by flow cytometry (CytoFLEX LX; Beckman Coulter) at 12-24 hours post-editing by collecting 0.5-1×10^5 total HSPCs in culture. Cells were washed with PBS+2% FBS and stained by using 10 μg/ml Hoechst 33342 (Sigma-Aldrich) in PBS+2% FBS for 0.5-1 hour in final volume equal to 200 μl.

The test system of data set [9] is human CD34+ cells transplanted into NSG mice. The data set can be described thus: Xenotransplantation of edited human CD34+ cells in NSG mice. The conditions noted are these: AAVS1; T0eq=3×10^5/mouse; FIG. 17B. The format is in vivo. As to the method:
For transplantation, 3×10^5 CD34+ cells treated for editing at day 5 of culture were injected intravenously into NSG mice after sub-lethal irradiation (150-180 cGy). Sample size was determined by the total number of available treated cells. Mice were attributed to each experimental group randomly. Human CD45+ cell engraftment and the presence of gene-edited cells were monitored by serial collection of blood from the mouse tail and, at the end of the experiment (>20 weeks after transplantation), BM and spleen were harvested and analyzed.
NOD-SCID-IL2Rg^−/− (NSG) mice were purchased from The Jackson Laboratory and were maintained in specific-pathogen-free (SPF) conditions. The procedures involving animals were designed and performed with the approval of the Animal Care and Use Committee of the San Raffaele Hospital (IACUC #749) and communicated to the Ministry of Health and local authorities according to Italian law. For transplantation, 1.5-3×10^5 (for primary) or 2×10^6 (for secondary) CD34^+ treated cells at 24 hours post-editing protocol were injected intravenously into NSG mice after sub-lethal irradiation (180 cGy). Sample size was determined by the total number of available treated cells. Mice were attributed to each experimental group randomly. Human CD45^+ cell engraftment and the percentage of edited GFP^+ cells were monitored by serial collection of blood from the mouse tail over the weeks post-transplantation and at the end of the experiment (18-20 weeks post-transplantation) both spleen and bone-marrow were harvested and analysed.

For data set [10], the system named is human CD34+ cells. Briefly: CFU-C / colony forming cell assay of edited CD34+ cells. The format is cell-based.

Chain of ATR (Homo sapiens, UniProt Q13535) (Q13535 whole entry): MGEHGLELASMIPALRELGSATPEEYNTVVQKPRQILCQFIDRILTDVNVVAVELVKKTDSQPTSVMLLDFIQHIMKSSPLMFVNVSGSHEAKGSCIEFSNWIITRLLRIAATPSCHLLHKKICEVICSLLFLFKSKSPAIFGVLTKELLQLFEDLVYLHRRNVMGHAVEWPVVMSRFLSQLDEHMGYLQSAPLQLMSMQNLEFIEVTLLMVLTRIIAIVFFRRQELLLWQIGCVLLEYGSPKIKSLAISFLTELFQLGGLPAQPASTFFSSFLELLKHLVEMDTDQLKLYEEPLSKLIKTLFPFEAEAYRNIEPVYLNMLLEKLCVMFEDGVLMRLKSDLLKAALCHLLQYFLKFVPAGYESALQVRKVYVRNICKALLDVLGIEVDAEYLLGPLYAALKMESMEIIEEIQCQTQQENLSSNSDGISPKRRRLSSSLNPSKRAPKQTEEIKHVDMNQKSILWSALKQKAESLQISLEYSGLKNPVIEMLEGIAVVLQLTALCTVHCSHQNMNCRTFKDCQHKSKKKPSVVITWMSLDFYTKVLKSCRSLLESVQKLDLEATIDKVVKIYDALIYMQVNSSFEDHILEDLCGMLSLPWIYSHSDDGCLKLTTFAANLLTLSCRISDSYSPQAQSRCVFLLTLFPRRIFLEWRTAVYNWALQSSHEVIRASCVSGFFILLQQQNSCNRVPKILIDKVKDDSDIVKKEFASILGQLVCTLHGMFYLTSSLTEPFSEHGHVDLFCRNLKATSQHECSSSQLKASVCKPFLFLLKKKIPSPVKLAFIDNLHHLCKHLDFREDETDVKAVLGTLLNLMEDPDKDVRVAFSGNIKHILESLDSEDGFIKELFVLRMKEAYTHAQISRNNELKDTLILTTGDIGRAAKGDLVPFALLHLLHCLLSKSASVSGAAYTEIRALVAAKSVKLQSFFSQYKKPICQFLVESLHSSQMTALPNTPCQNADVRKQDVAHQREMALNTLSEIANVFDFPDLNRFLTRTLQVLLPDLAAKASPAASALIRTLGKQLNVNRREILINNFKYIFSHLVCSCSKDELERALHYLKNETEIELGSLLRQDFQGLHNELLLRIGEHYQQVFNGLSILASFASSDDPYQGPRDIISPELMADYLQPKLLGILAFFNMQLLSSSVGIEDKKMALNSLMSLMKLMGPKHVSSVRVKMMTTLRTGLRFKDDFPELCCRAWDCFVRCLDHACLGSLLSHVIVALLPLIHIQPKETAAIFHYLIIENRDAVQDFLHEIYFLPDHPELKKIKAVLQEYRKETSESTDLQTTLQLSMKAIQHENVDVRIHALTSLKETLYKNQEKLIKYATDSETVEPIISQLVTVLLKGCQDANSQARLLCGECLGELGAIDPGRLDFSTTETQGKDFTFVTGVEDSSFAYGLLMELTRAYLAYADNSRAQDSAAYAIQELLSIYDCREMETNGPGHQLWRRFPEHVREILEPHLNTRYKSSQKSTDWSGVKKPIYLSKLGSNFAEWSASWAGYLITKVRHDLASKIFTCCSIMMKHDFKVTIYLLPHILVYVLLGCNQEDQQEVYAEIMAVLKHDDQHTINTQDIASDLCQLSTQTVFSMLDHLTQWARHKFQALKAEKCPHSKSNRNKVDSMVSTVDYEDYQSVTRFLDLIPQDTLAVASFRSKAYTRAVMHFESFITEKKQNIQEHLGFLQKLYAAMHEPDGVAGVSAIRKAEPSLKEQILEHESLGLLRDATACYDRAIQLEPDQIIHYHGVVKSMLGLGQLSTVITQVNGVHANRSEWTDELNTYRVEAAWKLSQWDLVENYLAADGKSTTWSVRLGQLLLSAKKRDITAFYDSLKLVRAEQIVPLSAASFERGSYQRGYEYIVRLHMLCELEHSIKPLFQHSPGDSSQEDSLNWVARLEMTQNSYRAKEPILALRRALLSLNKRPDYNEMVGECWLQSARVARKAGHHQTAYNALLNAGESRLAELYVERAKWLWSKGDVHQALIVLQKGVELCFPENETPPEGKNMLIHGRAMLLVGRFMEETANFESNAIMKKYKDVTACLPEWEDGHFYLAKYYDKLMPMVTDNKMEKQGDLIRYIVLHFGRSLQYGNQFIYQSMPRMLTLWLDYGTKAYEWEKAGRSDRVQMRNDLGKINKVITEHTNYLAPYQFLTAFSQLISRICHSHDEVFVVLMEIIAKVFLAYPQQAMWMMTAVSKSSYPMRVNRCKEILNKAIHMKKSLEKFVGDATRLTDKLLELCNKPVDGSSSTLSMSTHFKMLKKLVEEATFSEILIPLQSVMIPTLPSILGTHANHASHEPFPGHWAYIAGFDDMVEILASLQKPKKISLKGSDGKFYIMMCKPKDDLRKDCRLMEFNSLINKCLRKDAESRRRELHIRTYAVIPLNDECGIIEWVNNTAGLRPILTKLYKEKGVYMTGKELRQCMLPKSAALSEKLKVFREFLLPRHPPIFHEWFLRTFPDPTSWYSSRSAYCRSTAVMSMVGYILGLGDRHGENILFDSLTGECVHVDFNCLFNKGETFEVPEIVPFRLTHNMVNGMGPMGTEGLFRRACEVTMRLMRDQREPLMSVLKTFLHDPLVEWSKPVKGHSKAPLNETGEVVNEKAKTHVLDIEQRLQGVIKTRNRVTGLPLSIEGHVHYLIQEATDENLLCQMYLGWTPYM
Chain of ATR (Homo sapiens, UniProt Q13535) (Q8WXE1 whole entry partner): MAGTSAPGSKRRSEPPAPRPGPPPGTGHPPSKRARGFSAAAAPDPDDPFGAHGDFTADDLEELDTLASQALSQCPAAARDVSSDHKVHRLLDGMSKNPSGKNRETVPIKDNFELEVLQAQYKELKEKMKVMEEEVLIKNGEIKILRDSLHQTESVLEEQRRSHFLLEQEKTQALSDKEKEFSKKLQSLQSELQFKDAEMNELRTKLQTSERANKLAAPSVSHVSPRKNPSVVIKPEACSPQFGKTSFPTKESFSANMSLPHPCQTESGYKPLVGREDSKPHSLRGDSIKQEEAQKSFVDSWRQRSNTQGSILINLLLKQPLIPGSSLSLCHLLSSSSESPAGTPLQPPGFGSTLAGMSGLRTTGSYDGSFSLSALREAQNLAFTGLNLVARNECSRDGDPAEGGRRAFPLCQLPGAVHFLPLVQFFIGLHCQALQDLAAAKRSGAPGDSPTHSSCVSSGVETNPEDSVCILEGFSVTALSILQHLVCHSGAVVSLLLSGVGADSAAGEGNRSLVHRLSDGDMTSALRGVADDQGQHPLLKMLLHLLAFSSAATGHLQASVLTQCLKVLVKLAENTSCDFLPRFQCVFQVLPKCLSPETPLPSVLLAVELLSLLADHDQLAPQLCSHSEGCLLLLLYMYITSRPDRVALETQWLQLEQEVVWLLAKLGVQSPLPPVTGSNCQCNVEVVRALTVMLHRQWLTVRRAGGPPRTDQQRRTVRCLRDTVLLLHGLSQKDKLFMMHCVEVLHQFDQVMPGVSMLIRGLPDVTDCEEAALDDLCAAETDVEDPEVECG

Consider `Cn1c(=O)n(-c2ccc(C(C)(C)C#N)cc2)c2c3cc(-c4cnc5ccccc5c4)ccc3ncc21` [BEZ235], for which the IC50 in [1] was about 21 nM.

As to `O=C(NC(NC(=S)Nc1ccc(F)c([N+](=O)[O-])c1)C(Cl)(Cl)Cl)C(c1ccccc1)c1ccccc1` (stereo not shown) [CGK 733], the IC50 in data set [2] and in data set [3] was about 200 nM throughout.

Consider `COc1cc2ncnc(-n3nc(-c4ccccn4)nc3N)c2cc1OC` [CP-466722], for which the “effect on ATR” value in [2] is given as “does not affect ATR”.

As to `N=c1sc2c(n1CC(=O)c1ccc([N+](=O)[O-])cc1)CCCC2` [pifithrin-α p-nitro, reference compound], in data set [4] (3 days after gene editing), the “HDR efficiency (GFP+ cells)” value is “increase in HDR efficiency”.

For `Cc1ccc(C(=O)Cn2c3c(sc2=N)CCCC3)cc1` [pifithrin-α, reference compound], the “HDR efficiency (GFP+ cells)” value in data set [4] (3 days after gene editing) is on record as “increase in HDR efficiency”.

For `Cc1ccc(-c2cn3c4c(sc3n2)CCCC4)cc1` [pifithrin-α cyclic, reference compound], in [5], the “increase in DNA repair by NHEJ” value is “two-fold”. In [4], the cellular toxicity entry is listed as “lowest cellular toxicity”. Besides, the “increase in gene editing in the most primitive CD34+ CD133+ CD90+ cell compartment” value in data set [4] (3 days after gene editing, FIG. 2C) is “two-fold”. In data set [4] (3 days after gene editing), the “HDR efficiency (GFP+ cells)” value was “increase in HDR efficiency”.

Consider `O=c1cc(-c2cccc3c2Sc2ccccc2S3)oc(N2CCOCC2)c1` [KU-55933], for which the solubility result in [6] is “soluble in DMSO and ethanol”.

As to “E1B55K and E4orf6: combination of adenoviral proteins E1B55K (SEQ ID No. 15) and E4orf6 (SEQ ID No. 13), delivered as mRNAs”, the “GFP expression from the AAV6 donor” value in data set [4] (FIG. 15A) was “increased significantly the GFP expression”. In addition, in data set [4] (FIG. 15B), the “HDR-mediated integrations at the targeted AAVS1 locus compared to standard” value was “reducing HDR-mediated integrations”. In addition, the “editing efficiency by molecular analyses on genomic DNA” value in data set [4] is given as “not effective in increasing the editing efficiency”. In addition, in data set [4] (mainly most primitive HSPC compartment, AAVS1, FIG. 8A), the “transient increase in the fraction of GFP+ cells” value is recorded as “up to 1.45 fold”. Besides, the “growth curve of treated cells” value in [7] (FIG. 8D) was “lower compared to the standard”.

B1: E4orf1: adenoviral protein from adenovirus serotype 5 E4 gene (SEQ ID No. 1), delivered as mRNA (protein)
chain: MAAAVEALYVVLEREGAILPRQEGFSGVYVFFSPINFVIPPMGAVMLSLRLRVCIPPGYFGRFLALTDVNQPDVFTESYIMTPDMTEELSVVLFNHGDQFFYGHAGMAVVRLMLIRVVFPVVRQASNV
modifications: delivered as mRNA; example amino acid sequence of Ad5-E4orf1
Turning to B1, the “cell cycle states (G1 to S/G2/M)” value in [8] was “lower and not significant”. For the same molecule, in data set [4] (AAVS1, different mRNA doses, FIG. 6D), the “targeting efficiency versus mRNA dose” value was “dose dependent increase in the targeting efficiency”. In data set [4] (AAVS1, most primitive compartment (CD34+133+90+ / CD90+), 96 hours, FIG. 14C), the “increase of GFP expression compared to standard RNP+AAV6” value was “up to 1.3 fold”. In data set [4] (best performing mRNA dose, AAVS1, FIG. 6D), the “mean increase in the percentage of targeted primitive HSPC” value stood at 1.5 fold. The “editing efficiency by molecular analyses on genomic DNA” value in data set [4] is “reproducibly able to boost editing”. Also, the “mean increase in the fraction of GFP+ cells compared to the standard” value in [4] (side-by-side, AAVS1, 4 days, FIG. 7A) came to 1.2 fold. Further, the “human CD45+ cell engraftment in bloodstream, between groups” value in data set [9] was “did not show any statistical significance”. Moreover, the “increase in number of myeloid and erythroid colony forming units (CFU) compared to standard” value in [10] (FIG. 7C) stood at 3 fold. Besides, in data set [10] (FIG. 14G), the “erythroid and myeloid clonogenic output compared to standard protocol” value is listed as “improved”. In addition, in data set [10] (among E4orf1 serotype variants, FIG. 21D), the number of colonies entry is reported as “highest number of colonies”. Also, the “growth curve of treated cells compared to standard and E4orf6/7 alone” value in [7] (FIG. 7D) is reported as 4 fold. Besides, in [7] (days post-editing, FIG. 14B), the “cell growth compared to standard RNP+AAV6” value is reported as “about 2 fold”.
